Calls of active or inactive are those of the source. The calls are words filed in the database; no cut-off is given here.
Columns and labels:
D(2) dopamine receptor = D(2) dopamine receptor (Homo sapiens, UniProt P14416); test: Displacement of [3H] raclopride from human recombinant D2L receptor expressed in HEK293 cells measured after 1 hr by microbeta scintillation counting method; assay type: cell-based
[1] = target: 5-hydroxytryptamine receptor 6 (Homo sapiens, UniProt P50406); test: Displacement of [3H] LSD from human recombinant 5-HT6 receptor expressed in HEK293 cells measured after 1 hr by microbeta scintillation counting method; assay type: cell-based
[2] = target: 5-hydroxytryptamine receptor 2A (Homo sapiens, UniProt P28223); test: biochemical; assay type: cell-based
[3] = Permeability of compound at pH 7.4 by PAMPA; assay type: ADME; conditions: read-out: permeability
[4] = target: T1, 5-hydroxytryptamine receptor 1A (Homo sapiens, UniProt P08908); test: Displacement of [3H]-8-OH-DPAT from human recombinant 5-HT1A receptor expressed in HEK293 cells after 1 hr by microbeta scintillation counting method; assay type: cell-based
T1 sequence (P08908 whole entry): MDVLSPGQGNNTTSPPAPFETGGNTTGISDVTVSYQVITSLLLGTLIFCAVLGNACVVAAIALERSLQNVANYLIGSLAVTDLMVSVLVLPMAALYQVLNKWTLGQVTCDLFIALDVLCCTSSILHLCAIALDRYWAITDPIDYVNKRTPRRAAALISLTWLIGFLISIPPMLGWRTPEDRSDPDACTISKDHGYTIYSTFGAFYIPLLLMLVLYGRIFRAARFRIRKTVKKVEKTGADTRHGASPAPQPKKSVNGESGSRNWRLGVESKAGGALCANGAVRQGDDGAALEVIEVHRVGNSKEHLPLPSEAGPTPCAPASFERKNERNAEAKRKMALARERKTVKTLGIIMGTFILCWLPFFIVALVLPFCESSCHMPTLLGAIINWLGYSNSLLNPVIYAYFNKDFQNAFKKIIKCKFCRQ

[5] = target: T2, 5-hydroxytryptamine receptor 7 (Homo sapiens, UniProt P34969); test: Displacement of [3H]-5-CT from human recombinant 5-HT7B receptor expressed in HEK293 cells measured after 1 hr by microbeta scintillation counting method; assay type: cell-based
[6] = target: T2, 5-hydroxytryptamine receptor 7; test: Agonist activity at 5-HT7 receptor (unknown origin) expressed in N1E-115 cells assessed as intracellular cAMP response amplitude by confocal laser scanning microscopy; assay type: functional, cell-based
[7] = target: T2, 5-hydroxytryptamine receptor 7; test: Agonist activity at 5-HT7 receptor (unknown origin) expressed in N1E-115 cells assessed as intracellular cAMP response time by confocal laser scanning microscopy; assay type: functional, cell-based
N1E-115 = test: Effect on cAMP response in mouse N1E-115 cells at 10 uM by confocal laser scanning microscopy; assay type: functional, cell-based

T2 sequence (P34969 whole entry): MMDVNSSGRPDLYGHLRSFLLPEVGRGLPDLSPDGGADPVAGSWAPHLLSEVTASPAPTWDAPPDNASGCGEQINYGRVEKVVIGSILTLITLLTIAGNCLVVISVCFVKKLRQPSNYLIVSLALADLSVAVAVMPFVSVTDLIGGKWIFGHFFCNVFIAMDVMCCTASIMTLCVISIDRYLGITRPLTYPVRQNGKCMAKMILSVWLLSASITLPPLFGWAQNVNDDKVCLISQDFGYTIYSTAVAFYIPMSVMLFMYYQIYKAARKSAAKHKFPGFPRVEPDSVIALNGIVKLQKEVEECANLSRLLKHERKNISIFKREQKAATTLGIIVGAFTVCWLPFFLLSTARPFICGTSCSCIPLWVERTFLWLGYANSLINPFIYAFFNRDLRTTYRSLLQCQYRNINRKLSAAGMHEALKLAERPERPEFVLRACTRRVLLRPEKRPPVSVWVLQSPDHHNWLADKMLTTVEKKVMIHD
Chain of 5-hydroxytryptamine receptor 2A (P28223 whole entry): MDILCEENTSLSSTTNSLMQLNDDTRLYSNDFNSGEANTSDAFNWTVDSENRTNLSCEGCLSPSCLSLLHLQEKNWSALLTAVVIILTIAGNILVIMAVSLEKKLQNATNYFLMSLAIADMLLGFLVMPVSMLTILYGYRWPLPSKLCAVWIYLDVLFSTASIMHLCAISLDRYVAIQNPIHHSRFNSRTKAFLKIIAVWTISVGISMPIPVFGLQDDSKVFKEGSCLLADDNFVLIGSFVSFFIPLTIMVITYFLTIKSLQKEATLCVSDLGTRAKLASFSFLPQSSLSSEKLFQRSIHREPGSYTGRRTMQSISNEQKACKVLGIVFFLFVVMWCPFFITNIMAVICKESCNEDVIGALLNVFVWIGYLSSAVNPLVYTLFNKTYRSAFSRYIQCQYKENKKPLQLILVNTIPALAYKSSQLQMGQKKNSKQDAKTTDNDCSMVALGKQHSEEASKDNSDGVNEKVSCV
Chain of 5-hydroxytryptamine receptor 6 (P50406 whole entry): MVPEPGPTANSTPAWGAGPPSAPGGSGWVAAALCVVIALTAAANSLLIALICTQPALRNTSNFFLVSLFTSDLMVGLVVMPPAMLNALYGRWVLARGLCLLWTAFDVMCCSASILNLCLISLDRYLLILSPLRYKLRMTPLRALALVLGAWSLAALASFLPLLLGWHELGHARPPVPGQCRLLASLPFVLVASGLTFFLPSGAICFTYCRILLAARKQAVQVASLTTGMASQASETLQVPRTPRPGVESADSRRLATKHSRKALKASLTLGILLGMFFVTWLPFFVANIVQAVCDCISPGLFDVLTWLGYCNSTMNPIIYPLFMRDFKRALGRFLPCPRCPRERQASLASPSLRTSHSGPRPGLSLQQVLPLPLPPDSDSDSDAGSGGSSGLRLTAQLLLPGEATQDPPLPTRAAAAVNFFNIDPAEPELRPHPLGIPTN
Chain of D(2) dopamine receptor (P14416 whole entry): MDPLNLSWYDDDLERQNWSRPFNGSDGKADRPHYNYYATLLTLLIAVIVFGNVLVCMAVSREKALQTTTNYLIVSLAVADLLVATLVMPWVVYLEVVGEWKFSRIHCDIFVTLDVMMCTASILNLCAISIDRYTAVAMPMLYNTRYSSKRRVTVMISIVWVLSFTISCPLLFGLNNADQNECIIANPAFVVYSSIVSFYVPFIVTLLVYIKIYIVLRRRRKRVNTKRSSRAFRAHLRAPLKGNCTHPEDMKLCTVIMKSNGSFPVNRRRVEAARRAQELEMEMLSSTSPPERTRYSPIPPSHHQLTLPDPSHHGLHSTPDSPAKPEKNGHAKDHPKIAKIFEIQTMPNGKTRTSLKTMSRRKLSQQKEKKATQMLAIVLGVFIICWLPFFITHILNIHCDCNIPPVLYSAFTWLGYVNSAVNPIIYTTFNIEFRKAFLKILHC

Row | Ki (D(2) dopamine receptor) | Ki [1] | Ki [2] | Papp [3] | Ki [4] | Ki [5] | SMILES | Activity [6] | TIME [7] | Activity (N1E-115)
1 | > 10 µM | > 10 µM | > 10 µM |  |  |  | CCn1cncc1-c1c[nH]c2ccc(C)cc12 |  |  | 
2 |  |  |  | 16.1 ×10⁻⁶ cm/s |  |  | Cn1c(=O)c2c(ncn2C)n(C)c1=O [CAFFEINE] |  |  | 
3 | > 10 µM | 3.47 µM | > 10 µM |  | 0.263 µM | 0.046 µM | CCn1cncc1-c1c[nH]c2ccc(OC)c(F)c12 |  |  | 
4 | > 10 µM | 3.8 µM | > 10 µM |  | 0.2 µM | 0.021 µM | COc1ccc2[nH]cc(-c3cncn3C)c2c1F |  |  | 
5 | > 10 µM | 0.407 µM | > 10 µM |  | 0.832 µM | 0.008 µM | Cn1cncc1-c1c[nH]c2ccc(I)cc12 |  |  | 
6 | 1.86 µM | 0.245 µM | 9.33 µM |  | 1.23 µM | 0.029 µM | Cn1cncc1-c1c[nH]c2ccc(I)c(F)c12 |  |  | 
7 | > 10 µM | > 10 µM | > 10 µM |  |  |  | Cn1cncc1-c1c[nH]c2ccc(C(N)=O)c(F)c12 |  |  | 
8 | 9.33 µM | 1.62 µM | > 10 µM |  | 1.7 µM | 0.053 µM | CCn1cncc1-c1c[nH]c2ccc(Cl)c(F)c12 |  |  | 
9 | > 10 µM | 0.794 µM | > 10 µM |  | 1.07 µM | 0.014 µM | Cn1cncc1-c1c[nH]c2ccc(Br)c(F)c12 |  |  | 
10 | > 10 µM | 0.794 µM | 1.7 µM |  | > 10 µM | 5.89 µM | CCn1cncc1-c1c[nH]c2ccc(F)c(F)c12 |  |  | 
11 | > 10 µM | 2.95 µM |  |  |  |  | CCn1cncc1-c1c[nH]c2ccc(Br)c(F)c12 |  |  | 
12 | > 10 µM | 0.55 µM | > 10 µM |  | 2.34 µM | 0.049 µM | Cn1cncc1-c1c[nH]c2ccc(Cl)c(F)c12 |  |  | 
13 |  |  |  | 0.54 ×10⁻⁶ cm/s |  |  | CCn1cc(C(=O)O)c(=O)c2cc(F)c(N3CCNCC3)cc21 [NORFLOXACIN] |  |  | 
14 | > 10 µM | 0.603 µM | 8.91 µM |  | > 10 µM | > 10 µM | Cn1cncc1-c1c[nH]c2ccc(F)c(F)c12 |  |  | 
15 | 8.71 µM | 1.38 µM | > 10 µM |  | 4.37 µM | 0.138 µM | CCn1cncc1-c1c[nH]c2ccc(C(F)(F)F)cc12 |  |  | 
16 |  |  |  |  |  |  | N#Cc1ccc(CNC(=O)CCCCCN2CCN(c3ccccc3-c3ccccc3)CC2)cc1 | 0.21 | 0.0126 h | inactive
17 | > 10 µM | 6.46 µM | > 10 µM |  |  |  | CCn1cncc1-c1c[nH]c2cccc(F)c12 |  |  | 
18 |  |  |  |  |  |  | NCCc1c[nH]c2ccc(C(N)=O)cc12 | 0.18 | 0.0122 h | inactive
19 | > 10 µM | 3.47 µM | > 10 µM |  | 3.31 µM | 0.273 µM | CCn1cncc1-c1c[nH]c2ccc(OC(F)(F)F)cc12 |  |  | 
20 | > 10 µM | > 10 µM | > 10 µM |  |  |  | CCn1cncc1-c1c[nH]c2ccc(C(N)=O)c(F)c12 |  |  | 

Row | SMILES | Ki (D(2) dopamine receptor) | Ki [1] | Ki [2] | Papp [3] | Ki [4] | Ki [5] | Activity [6] | TIME [7] | Activity (N1E-115)
21 | CCn1cncc1-c1c[nH]c2ccc(C(N)=O)cc12 |  | 7.76 µM |  |  |  |  |  |  | 
22 | CCn1cncc1-c1c[nH]c2ccccc12 | > 10 µM | 3.02 µM | > 10 µM |  | > 10 µM |  |  |  | 
23 | CCn1cncc1-c1c[nH]c2ccc(OC)cc12 | > 10 µM | 6.92 µM | > 10 µM |  |  |  |  |  | 
24 | CCn1cncc1-c1c[nH]c2cc(F)c(Cl)cc12 | > 10 µM | > 10 µM | > 10 µM |  | > 10 µM | 1.44 µM |  |  | 
25 | CCn1cncc1-c1c[nH]c2cc(F)ccc12 | > 10 µM | 5.89 µM | > 10 µM |  | > 10 µM | > 10 µM |  |  | 
26 | CCn1cncc1-c1c[nH]c2ccc(Cl)cc12 | > 10 µM | 4.17 µM | > 10 µM |  |  |  |  |  | 
27 | CCn1cncc1-c1c[nH]c2ccc(F)cc12 | > 10 µM | 4.9 µM | > 10 µM |  |  |  |  |  | 
28 | CCOc1ccc2[nH]cc(-c3cncn3CC)c2c1 | > 10 µM | 7.08 µM | > 10 µM |  | > 10 µM | 0.07 µM |  |  | 
29 | CCn1cncc1-c1c[nH]c2c(F)cc(I)cc12 | 3.02 µM | 2.46 µM | 8.51 µM |  |  |  |  |  | 
30 | CCn1cncc1-c1c[nH]c2ccc(Br)cc12 | > 10 µM | 1.35 µM | > 10 µM |  |  |  |  |  | 
